For one assay, the target named is T1, human TLR7 (Homo sapiens, UniProt Q9NYK1).
T1 construct: expresses full-length human TLR7 and secretory alkaline phosphatase (SEAP) reporter gene; host or cells: HEK293 (TLR7/NF-κB/SEAPorter)
T1 sequence (Q9NYK1 27-1049): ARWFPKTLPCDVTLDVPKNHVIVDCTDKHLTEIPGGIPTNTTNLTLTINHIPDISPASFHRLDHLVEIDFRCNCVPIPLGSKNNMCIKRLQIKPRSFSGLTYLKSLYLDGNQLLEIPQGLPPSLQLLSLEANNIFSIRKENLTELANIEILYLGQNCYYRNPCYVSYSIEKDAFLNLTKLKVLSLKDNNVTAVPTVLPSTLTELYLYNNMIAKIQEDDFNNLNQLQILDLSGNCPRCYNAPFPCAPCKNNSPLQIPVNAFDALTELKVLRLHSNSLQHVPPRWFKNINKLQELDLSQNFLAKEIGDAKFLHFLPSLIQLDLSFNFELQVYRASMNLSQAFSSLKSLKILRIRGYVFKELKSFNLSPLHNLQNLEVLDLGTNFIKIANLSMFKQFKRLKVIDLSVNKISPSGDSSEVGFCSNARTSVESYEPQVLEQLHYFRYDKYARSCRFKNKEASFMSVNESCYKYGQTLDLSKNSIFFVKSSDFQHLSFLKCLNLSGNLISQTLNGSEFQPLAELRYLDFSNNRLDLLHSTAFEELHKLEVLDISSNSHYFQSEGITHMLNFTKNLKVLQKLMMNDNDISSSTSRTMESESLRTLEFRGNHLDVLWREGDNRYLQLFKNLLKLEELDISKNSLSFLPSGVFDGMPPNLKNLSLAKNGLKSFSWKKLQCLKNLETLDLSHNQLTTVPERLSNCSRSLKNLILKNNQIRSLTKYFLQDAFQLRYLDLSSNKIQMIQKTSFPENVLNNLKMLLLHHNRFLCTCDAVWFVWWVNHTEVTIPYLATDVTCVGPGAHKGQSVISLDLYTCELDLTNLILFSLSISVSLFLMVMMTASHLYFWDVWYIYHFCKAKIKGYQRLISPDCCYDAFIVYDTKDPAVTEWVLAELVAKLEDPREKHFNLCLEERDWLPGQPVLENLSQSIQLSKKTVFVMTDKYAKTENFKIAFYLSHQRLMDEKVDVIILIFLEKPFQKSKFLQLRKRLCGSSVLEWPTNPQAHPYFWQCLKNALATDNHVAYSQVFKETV
Description: Human TLR7 reporter gene assay (TLR7/NF-κB/SEAPorter HEK293 cell line), Tests 1 and 21. It counts as cell-based. From the text:
Human TLR7 Reporter Gene Assay
TLR7/NF-κB/SEAPorter™ HEK293 cell line (Imgenex Corporation) is a stably co-transfected cell line which expresses full-length human TLR7 and secretory alkaline phosphatase (SEAP) reporter gene under the transcriptional regulation of an NF-κB response element. The TLR7 expression of the cell line has been already tested by flow cytometry. Transfectants with stable expression were selected using the antibiotic blasticidin and Geneticin. TLR signaling leads to the translocation of NF-κB and the activation of the promoter results in expression of the SEAP gene. TLR7-specific activation was assessed by determining the level of SEAP produced following 24-hour incubation of the cells at 37° C. with each compound prepared in Examples and Reference examples in the presence of 0.1% (v/v) dimethylsulfoxide (DMSO). The human TLR7 activity for the present compound was assessed by human TLR7 reporter gene assay, and the results are shown in Tables 3 and 4 as the compound concentration which produced half of the maximal level of SEAP induction (EC50)
According to the method of Test 1, human TLR7 reporter gene assay was done with the following samples, and the result was shown in the table below.
In general terms: Reporter assays use an easily measured gene product as a stand-in for the process of interest.

The target in a further assay is T2, mouse TLR7 (Mus musculus, UniProt P58681).
T2 construct: expresses full-length mouse TLR7 and secretory SEAP reporter gene; host or cells: HEK-Blue mTLR7 (HEK293-derived)
T2 sequence (P58681 27-1050): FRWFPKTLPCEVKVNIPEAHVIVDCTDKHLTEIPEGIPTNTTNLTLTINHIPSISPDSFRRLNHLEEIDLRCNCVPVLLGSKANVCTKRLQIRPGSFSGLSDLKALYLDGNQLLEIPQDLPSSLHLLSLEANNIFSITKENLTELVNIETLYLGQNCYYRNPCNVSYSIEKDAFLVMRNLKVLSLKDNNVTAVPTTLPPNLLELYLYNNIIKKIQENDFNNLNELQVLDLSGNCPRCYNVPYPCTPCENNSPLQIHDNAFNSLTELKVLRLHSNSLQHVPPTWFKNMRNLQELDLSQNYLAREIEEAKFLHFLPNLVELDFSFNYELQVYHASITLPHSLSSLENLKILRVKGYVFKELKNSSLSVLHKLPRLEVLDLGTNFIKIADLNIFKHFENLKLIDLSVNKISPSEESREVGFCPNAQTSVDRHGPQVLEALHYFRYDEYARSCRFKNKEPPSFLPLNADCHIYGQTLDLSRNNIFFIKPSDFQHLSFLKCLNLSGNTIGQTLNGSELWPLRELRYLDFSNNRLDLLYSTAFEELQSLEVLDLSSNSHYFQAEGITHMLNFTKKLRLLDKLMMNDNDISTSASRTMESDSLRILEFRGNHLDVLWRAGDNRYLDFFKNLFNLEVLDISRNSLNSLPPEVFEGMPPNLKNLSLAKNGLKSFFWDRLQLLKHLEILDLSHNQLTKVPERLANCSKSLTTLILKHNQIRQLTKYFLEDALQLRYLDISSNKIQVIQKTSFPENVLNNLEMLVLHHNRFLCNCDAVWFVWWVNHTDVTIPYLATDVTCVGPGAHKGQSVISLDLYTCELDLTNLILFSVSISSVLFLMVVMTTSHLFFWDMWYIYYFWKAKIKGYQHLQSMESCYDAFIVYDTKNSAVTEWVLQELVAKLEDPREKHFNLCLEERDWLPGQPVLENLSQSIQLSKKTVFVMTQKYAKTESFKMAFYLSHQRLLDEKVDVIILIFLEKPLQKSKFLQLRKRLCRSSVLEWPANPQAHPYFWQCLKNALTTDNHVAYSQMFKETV
Description: Mouse TLR7 reporter gene assay (HEK-Blue mTLR7 cell line), Test 2. Particulars: half of maximal SEAP induction, 20-24-hour incubation, 0.1% DMSO. Format: cell-based. From the text:
Test 2 Mouse TLR7 Reporter Gene Assay
HEK-Blue™ mTLR7 cell line (Invivogen) is a stably co-transfected cell line which expresses full-length mouse TLR7 and secretory SEAP reporter gene under the transcriptional regulation of an NF-κB response element. The TLR7 expression of the cell line has been already tested by RT-PCR. Transfectants with stable expression were selected using the antibiotic blasticidin and Zeocin. TLR signaling leads to the translocation of NF-κB and the activation of the promoter results in expression of the SEAP gene. TLR7-specific activation was assessed by determining the level of SEAP produced following 20-24-hour incubation of the cells at 37° C. with each compound prepared in Examples and Reference examples in the presence of 0.1% (v/v) DMSO. The mouse TLR7 activity for the present compound was assessed by mouse TLR7 reporter gene assay, and the results are shown in Tables 5 and 6 as the compound concentration which produced half of the maximal level of SEAP induction (EC50).

Assay [1] concerns HLA-A*02:01 transgenic mouse. As to the kind of experiment: Test 9: in vivo adjuvant activity, cocktail vaccine b, IFNγ ELISPOT. The following applies: added to cocktail vaccine b; Peptide SEQ ID No. 1 or SEQ ID No. 4; 0.4 nmol per body, twice; FIG. 6 and 7. The procedure: Evaluation of In Vivo Adjuvant Activity in HLA-A*02:01 Transgenic Mouse
The in vivo adjuvant activity of the compounds prepared in Examples 8, 9, and 10 and the compound prepared in Reference example 12 was evaluated in the following procedure. To cocktail vaccine b comprising Compound of formula 4 prepared in Reference example 8 and Peptide SEQ ID No. 3 prepared in Reference example 3 with Montanide ISA51 VG was added the compound prepared in Example 8, 9, or 10, or the compound prepared in Reference example 12 to prepare each vaccine. The vaccine was administered to a HLA-A*02:01 transgenic mouse, and the adjuvant activity of each vaccine was evaluated by the method of testing antigen-specific CTL induction.
Specifically, Compound of formula 4 and Peptide SEQ ID No. 3 were dissolved in DMSO, and then diluted with water for injection to concentrations of Compound of formula 4 of 3 mg/mL and Peptide SEQ ID No. 3 of 2.25 mg/mL. The diluted peptide solution was mixed and emulsified with an equal volume of Montanide ISA 51 VG to prepare cocktail vaccine b. Cocktail vaccine b was injected to mice intradermally at the tail base area in an amount for administering 300 μg of Compound of formula 4 per body and 225 μg of Peptide SEQ ID No. 3 per body. Or, in the step of preparing cocktail vaccine b, the compound prepared in Example 8, 9, or 10, or the compound prepared in Reference example 12 was added to the diluted peptide solution to prepare a vaccine, and the prepared vaccine was injected to mice intradermally at the tail base area in an amount for administering 300 μg of Compound of formula 4 per body, 225 μg of Peptide SEQ ID No. 3 per body, and 0.4 nmol of the compound prepared in Example 8, 9, or 10, or the compound prepared in Reference example 12 per body. The administrations were done twice, which had one week interval. One week after the final administration, the mice were sacrificed with CO2 gas. Splenocytes were harvested from spleens removed from the mice. Like Test 4, Peptide (SEQ ID No. 1 or SEQ ID No. 4) was added to the splenocyte-containing ELISPOT plate at a final concentration of 10 μg/ml, and the plate was incubated overnight at 37° C. under an atmosphere of 5% CO2 to re-stimulate the peptide in vitro. Then, after removal of the supernatant from the wells, stained spots on the ELISPOT plate were counted.

Setting [2] is: Test 1, TLR7/NF-κB/SEAPorter HEK293 cell line, half of maximal SEAP induction, 24-hour incubation, 0.1% DMSO, read-out: EC50.
The mark [3] stands for this setting: Test 21, according to the method of Test 1, read-out: human EC50.

Like-named read-outs stand apart in the source and are kept apart here.

Usually EC50 stands for the concentration that produces a half-maximal response. On to `CCC[C@@H](CCO)Nc1nc(N)nc(C)c1Cc1ccc(CN(C)CCOCCOCCOCCOCCO)cc1OC` [Example 2, 1-{4-[(2-amino-4-{[(3S)-1-hydroxyhexan-3-yl]amino}-6-methylpyrimidin-5-yl)methyl]-3-methoxyphenyl}-2-methyl-5,8,11,14-tetraoxa-2-azahexadecan-16-ol-trifluoroacetate], for which the EC50 at human TLR7 (setting [2]) is 94 nM; on mouse TLR7, 21 nM.

On to `CCCCCNc1nc(N)nc(C)c1Cc1cc(CN(C)CCOCCOCCOCCOCCO)ccc1OC` [Example 3, 1-(3-{[2-amino-4-methyl-6-(pentylamino)pyrimidin-5-yl]methyl}-4-methoxyphenyl)-2-methyl-5,8,11,14-tetraoxa-2-azahexadecan-16-ol-trifluoroacetate], for which the EC50 on human TLR7 (setting [3]) was found to be 637 nM.

Turning to `CCCCCNc1nc(N)nc(C)c1Cc1ccc(CN(C)CCOCCOCCOCCOCCOCCOCCOCCOCCOCCO)cc1OC` [Example 8, 1-(4-{[2-amino-4-methyl-6-(pentylamino)pyrimidin-5-yl]methyl}-3-methoxyphenyl)-2-methyl-5,8,11,14,17,20,23,26,29-nonaoxa-2-azahentriacontan-31-ol], the half-maximal effective concentration (EC50) on human TLR7 (setting [3]) came out at 388 nM. Besides, in assay [1], the “CTL counts responsive to the peptide compared with Reference example 12” value was “more” and the “CTL counts responsive to the peptide compared with adding no compound” value is on record as “more”.

As for `CCCCCNc1nc(N)nc(C)c1Cc1ccc(CN(C)CCOCCOCCOCCOCCOCCOCCOCCOCCOCCOCCOCCOCCOCCOCCOCCOCCOCCOCCOCCOCCOCCOCCOCCO)cc1OC` [Example 9, 1-(4-{[2-amino-4-methyl-6-(pentylamino)pyrimidin-5-yl]methyl}-3-methoxyphenyl)-2-methyl-5,8,11,14,17,20,23,26,29,32,35,38,41,44,47,50,53,56,59,62,65,68,71-tricosaoxa-2-azatriheptacontan-73-ol], at human TLR7 (setting [3]), the EC50 turned out to be 3990 nM. In assay [1], the “CTL counts responsive to the peptide compared with Reference example 12” value is listed as “more” and the “CTL counts responsive to the peptide compared with adding no compound” value is on record as “more”.

With `CCCCCNc1nc(N)nc(C)c1Cc1ccc(CN(C)CCOCCOCCOCCOCCOCCOCCOCCOCCOCCOCCOCCOCCOCCOCCOCCOCCOCCOCCOCCOCCOCCOCCOCCOCCOCCOCCOCCOCCOCCOCCOCCOCCOCCOCCOCCO)cc1OC` [Example 10, 1-(4-{[2-amino-4-methyl-6-(pentylamino)pyrimidin-5-yl]methyl}-3-methoxyphenyl)-2-methyl-5,8,11,14,17,20,23,26,29,32,35,38,41,44,47,50,53,56,59,62,65,68,71,74,77,80,83,86,89,92,95,98,101,104,107-pentatriacontaoxa-2-azanonahectan-109-ol], the EC50 on human TLR7 (setting [3]) stood at 3810 nM.

In the case of `CCC[C@@H](CCO)Nc1nc(N)nc(C)c1Cc1ccc(CNC)cc1OC` [compound 11, (3S)-3-{[2-amino-5-({2-methoxy-4-[(methylamino)methyl]phenyl}methyl)-6-methylpyrimidin-4-yl]amino}hexan-1-ol, reference compound], the EC50 on human TLR7 (setting [2]) came to 8 nM; on mouse TLR7, 2 nM.

Source of the values: patent US12427192B2, “Water soluble adjuvant and composition containing same” (Sumitomo Pharma Co., Ltd., priority 2019, dated 2025).
